Measured values: ChEMBL document CHEMBL1152706, “Stieglitz rearrangement of N,N-dichloro-beta,beta-disubstituted taurines under mild aqueous conditions” (Bioorg Med Chem Lett, 2009)

Columns and labels:
Type in all cases: physicochemical
Conditions in all cases: buffer
[1] = Chemical stability assessed as half life at pH 7 at 40 degC
[2] = Chemical stability assessed as half life at pH 4 at 40 degC
[3] = Chemical stability assessed as half life at pH 4 at 25 degC

SMILES	half-life [2] [h]	half-life [3] [h]	also measured
O=S(=O)([O-])CCCCCN(Cl)Cl.[Na+]	120		half-life [1]: 24 h
CC(C)(CS(=O)(=O)[O-])N(Cl)Cl.[Na+]			t1/2 [2]: > 2 yr
O=S(=O)([O-])CCCCN(Cl)Cl.[Na+]		6	
O=S(=O)([O-])CCCCCCN(Cl)Cl.[Na+]	168		
O=S(=O)([O-])CCCCCCCN(Cl)Cl.[Na+]	48		
CC1(C)CC(C)(C)CC(CS(=O)(=O)[O-])(N(Cl)Cl)C1.[Na+]	24		
O=S(=O)([O-])CCOCCN(Cl)Cl.[Na+]		< 24	

Further lines, with some results ahead:

half-life [2] [h]	half-life [3] [h]	SMILES	also measured
24		CCC(CC)(CS(=O)(=O)[O-])N(Cl)Cl.[Na+]	half-life [1]: 12 h
12		CCCC(CCC)(CS(=O)(=O)[O-])N(Cl)Cl.[Na+]	half-life [1]: 48 h
	< 0.167	CC(C)C(CS(=O)(=O)[O-])(C(C)C)N(Cl)Cl.[Na+]	
	36	COCC(C)(CS(=O)(=O)[O-])N(Cl)Cl.[Na+] (centres undefined)	
